Values of other authors, collected in US20180369136A1, “DEVICES AND METHODS FOR TRANSDERMAL TREATMENT OF BASAL CELL CARCINOMA” (NORTH CAROLINA STATE UNIVERSITY, priority 2015, published 2018).

Tests used:
[1] = system: immunosuppressed syngeneic mice; conditions: in vivo
[2] = system: yeast and bacteria cells; conditions: in vitro
[3] = system: basal cell carcinoma tumor; conditions: oral itraconazole
[4] = system: Hedgehog signaling in basal cell carcinoma; conditions: basal cell carcinoma in vitro model

In the case of O=c1[nH]cc(F)c(=O)[nH]1 [fluorouracil, 5-fluorouracil], the mutagenicity [1] is listed as “causes mutations” and the mutagenicity [2] is listed as “causes mutations”.
For CCC(C)n1ncn(-c2ccc(N3CCN(c4ccc(OCC5COC(Cn6cncn6)(c6ccc(Cl)cc6Cl)O5)cc4)CC3)cc2)c1=O (stereo not drawn) [itraconazole], the “solubility in ethanol and water” value (ethanol and water) is listed as “poor solubility” and the side effects [3] is listed as “grade 4 congestive heart failure”.
For C=C1CC[C@H](O)C/C1=C/C=C1\CCC[C@]2(C)[C@@H]([C@H](C)CCCC(C)C)CC[C@@H]12 [vitamin D3], the “solubility in aqueous media” value (aqueous media) is given as “does not readily dissolve” and the Hedgehog signaling [4] is given as “suppress Hedgehog signaling”.
